Literature values in paper PMC12329520 (Molecular Therapy. Nucleic Acids, 2025).

Test system: exon 23 of the Dmd gene
Conditions: CP10 conjugated to 2OMePS ASO, mdx mouse

QLFPLFR [CP10]
exon skipping in skeletal muscle tissues and heart compared with an unconjugated ASO of the same chemistry: significant improvement in exon skipping
